Patent publication US9056108B2, “Method of treating atrial fibrillation” (Gilead Sciences, Inc., priority 2009, dated 2015)
Like-named read-outs stand apart in the source and are kept apart here.

Tests used:
[1] = test system: isolated canine coronary-perfused right atria; test: Electrophysiology in isolated coronary-perfused canine right atrial preparations; conditions: in presence of ACh 1 μM, ranolazine 5 μM, dronedarone 10 μM
Protocol: Experiments were performed using isolated coronary-perfused canine right atrial (RA) and left ventricular (LV) preparations (≈3×1.5×1 cm). Isolation and perfusion of the preparations were as previously described.^9, 15, 16 Briefly, preparations were dissected from hearts removed from anesthetized (sodium pentobarbital) adult mongrel dogs (20-30 kg). Unfolded RA with attached rim of the right ventricle was cannulated and perfused with cold cardioplegic solution (4-8° C.) through the ostium of the right coronary artery; the LV wedge was perfused through a diagonal branch of the left anterior descending coronary artery. Unperfused tissue was removed with a razor blade. Cut ventricular and atrial branches were ligated using silk thread. The preparations were then transferred to a temperature-controlled bath and arterially-perfused with Tyrode's solution by use of a roller pump. The composition of the Tyrode's solution was (in mM): NaCl 129, KCl 4, NaH2PO4 0.9, NaHCO3 20, CaCl2 1.8, MgSO4 0.5, and D-glucose 5.5, buffered with 95% O2 and 5% CO2 (37±0.5° C., pH=7.35)
Transmembrane action potential (AP) recordings were obtained using floating glass microelectrodes at a sampling rate of 40 kHz. A pseudo-electrocardiogram (ECG) was recorded using two electrodes consisting of Ag/AgCl half cells placed in the Tyrode's solution bathing the preparation, 1.0 to 1.5 cm from the two opposite sides of the atrial or ventricular coronary-perfused preparations. Conduction time was approximated by the duration of “P wave” in atria and “QRS complex” in ventricles, at a level representing 10% of “P wave” and “QRS” amplitude. Diastolic threshold of excitation (DTE) was determined by increasing stimulus intensity in 0.01 mA steps. Effective refractory period (ERP) was measured by delivering premature stimuli at progressively shorter S1-S2 intervals after every 10 basic beats at a pacing cycle length (CL) of 500 ms (5 ms steps; 2 times DTE). Post-repolarization refractoriness (PRR) was recognized when ERP exceeded action potential duration measured at 90% repolarization (APD90) in the ventricle and APD measured at 70% repolarization (APD70) in atria. Ventricular ERP was coincident with APD90, whereas atrial ERP was generally coincident with APD70-75.^9 The shortest S1-S1 permitting 1:1 activation was measured by progressively shortening pacing CL starting from a CL of 500 ms.
Stable AP recordings could not be readily obtained in the vigorously contracting perfused preparations. The largest recorded maximum rate of rise of the AP upstroke (Vmax) values per experimental condition were taken for statistical comparison. Only APs having amplitudes of at least 100 mV were considered in the analysis. The largest Vmax criterion was used because this was associated with the largest amplitude and the most negative resting membrane potential, depicting full or near full impalement. In determining use-dependent depression of Vmax, values were normalized to the Vmax value at a CL of 500 ms for each experiment and then averaged.
Because of their dependence on peak INa, Vmax, DTE, PRR, and conduction time as well the shortest S1-S1 interval permitting 1:1 activation are referred to as INa-dependent parameters.
The equilibration period for the coronary-perfused preparations was 30-120 min. The preparations were exposed to 5 μM ranolazine, 10 μM dronedarone (after 30 min washout of ranolazine), and the combination of these agents for at a period of at least 20 min. In time-control experiments, 20 minutes was sufficient to achieve steady-state in the effects of each of the drugs to alter electrophysiologic parameters. Recordings were obtained at a cycle length (CL) of 500 and 300 ms, unless otherwise indicated. […] When determining the shortest S1-S1 pacing rate permitting 1:1 activation, the stimulation intensity was DTE x 2, determined at a CL of 500 ms.

[2] = test system: ACh-mediated persistent AF in isolated canine coronary-perfused right atria; test: Acetylcholine (ACh)-mediated persistent AF model in coronary-perfused right atria; conditions: ranolazine 5 μM, dronedarone 10 μM
Protocol: To assess the anti-AF potential of ranolazine, dronedarone, and their combination, we used an acetylcholine (ACh, 1.0 μM)-mediated AF model. In the presence of ACh, premature electrical stimulation (PES) or rapid pacing (CL=50-80 ms) induces persistent AF in 100% of canine coronary-perfused right atrial preparations.^9 The effect of the drugs was assessed to prevent (series 1) the induction of AF. In a separate set of preparations, the ability of these agents was evaluated to terminate (series 2) persistent AF. In the first series, ACh was added to the perfusate 20-30 min after the start of perfusion with 5 μM ranolazine, 10 μM dronedarone, or the combination of these agents. This was followed by attempts to induce the arrhythmia electrically. In the second series, the agents were added to the perfusate during ACh-mediated persistent AF (on the 5-6th minutes after the start of the arrhythmia). In cases in which the drug terminated AF, we attempted to re-induce the arrhythmia with rapid pacing.

[3] = test system: rabbit isolated heart treated with acetylcholine; test: Electrically-induced atrial fibrillation in rabbit isolated heart treated with acetylcholine
Protocol: Each rabbit was sedated using intramuscular injections of 6 mg/kg xylazine and 40 mg/kg ketamine and then anesthetized using a “cocktail” of ketamine (15 mg/kg)+xylazine (4 mg/kg) in 1.5 ml saline. The ketamine/xylazine cocktail was administered as an i.v. bolus via the marginal ear vein. After anesthesia was confirmed, the thorax was opened and the heart was quickly excised. The heart was placed in a modified Krebs-Henseleit (K-H) physiological saline solution at room temperature. The K-H solution contained (in mmol/L): NaCl 118, KCl 2.8, KH2PO4 1.2, CaCl2 2.5, MgSO4 0.5, pyruvate 2.0, glucose 5.5, Na2EDTA 0.57 and NaHCO3 25. The solution was continuously gassed with 95% O2 and 5% CO2, and its pH was adjusted to 7.4. The aorta was rapidly catheterized and the heart was perfused by the method of Langendorff with K-H solution warmed to 36-36.5° C. at a rate of 20 mL/min with a roller pump (Gilson Minipuls3, Middleton, Wis.). CPP was measured (with a Biopac MP 150 pressure transducer, Goleta, Calif.) from a side port of the aortic catheter. To facilitate exit of fluid from the chamber of the left ventricle (LV), the leaflets of the mitral valve were trimmed with fine spring-handled scissors. The right atrial wall was partially removed. […]

[4] = test system: female rabbit isolated heart treated with E-4031; test: Torsades de pointes in rabbit isolated heart treated with E-4031; conditions: E-4031 60 nM
Protocol: Each rabbit was sedated using intramuscular injections of 6 mg/kg xylazine and 40 mg/kg ketamine and then anesthetized using a “cocktail” of ketamine (15 mg/kg)+xylazine (4 mg/kg) in 1.5 ml saline. The ketamine/xylazine cocktail was administered as an i.v. bolus via the marginal ear vein. After anesthesia was confirmed, the thorax was opened and the heart was quickly excised. The heart was placed in a modified Krebs-Henseleit (K-H) physiological saline solution at room temperature. […] CPP was measured (with a Biopac MP 150 pressure transducer, Goleta, Calif.) from a side port of the aortic catheter. To facilitate exit of fluid from the chamber of the left ventricle (LV), the leaflets of the mitral valve were trimmed with fine spring-handled scissors. The right atrial wall was partially removed.
Complete AV block was induced by thermo-ablation of the AV nodal area. […] A bipolar Teflon-coated electrode was placed on the right ventricular septum to pace the heart. Electrical stimuli 3 ms in width and 3-fold threshold amplitude were delivered to the pacing electrode at a frequency of 1 Hz throughout the experiments using a Grass S48 stimulator (W. Warwick, R.I.).
After initiation of ventricular pacing, a 30-40 min equilibration delay was allowed for heart rate (and CPP) to achieve a steady state, an essential experimental condition for recording a good quality monophasic action potential (MAP) recording.
Monophasic action potential (MAP) and ECG electrodes from Harvard Apparatus Inc. (Holliston, Mass.) were used to record heart rate (in beats per minute, or bpm), left ventricular MAPs and a bipolar ECG MAP electrodes were pressure contact Ag—AgCl cells attached to a circular holder with springs to keep the electrodes in contact with the LV epicardial surface. Two MAP electrodes were placed on the epicardial ventricular free wall below the level of the atrial-ventricular valves, one at the base to record a basal MAP and one at the apex to record an apical MAP. […] Signals were saved on a computer hard disk for subsequent analysis. Bipolar electrocardiograms (ECG) were generated using an isolated-heart ECG apparatus (Harvard Apparatus, Holliston, Mass.) attached to Biopac amplifier system.

patients with AF = conditions: DIONYSOS trial, 6 months of follow-up; cited from earlier work
[5] = cited from earlier work
[6] = test system: spontaneous (intrinsic) atrial rate in guinea pig isolated hearts; test: Spontaneous atrial rate in guinea pig isolated hearts; conditions: verapamil 10 μM; from 225±3
Text: To perfuse the heart by the Langendorff method, the transected aorta was slid onto a glass cannula and secured by a ligature. […] To facilitate the exit of fluid from the left ventricle, the leaflets of the mitral valve were trimmed with fine spring-handled scissors. […] Experimental interventions were always preceded and followed by control measurements.

[7] = ACh 1 μM-mediated persistent AF

## CC(=O)OCC[N+](C)(C)C [ACh, Acetylcholine]
[1]; in ms (unit assumed)
  Shortest S1-S1 (shortest CL permitting 1:1 activation): 56 ± 7
[1]; pectinate muscle, CL of 500 ms
  APD90: 41 ± 6 ms
  ERP: 52 ± 9 ms
[2]; [7]
  Termination Persistent AF: 0%
  Termination Persistent AF (atria terminated/atria tested): 0/10
[2]; in presence of ACh 1 μM
  Induction of Persistent AF: 100%
[3]; S1S2 protocol, acetylcholine 0.6-1 μM, ranolazine 6 μM in presence of 0.3 μM dronedarone
  Inducibility of AF: 100%

## Cc1cccc(CCN2CCC(C(=O)c3ccc(NS(C)(=O)=O)cc3)CC2)n1 [E-4031, N-[4-[[1-[2-(6-Methyl-2-pyridinyl)ethyl]-4-piperidinyl]carbonyl]phenyl]methanesulfonamide]
[4]; dronedarone 10 μM
  Occurrences of torsades de pointes (TdP) (hearts): 4/6
[4]; dronedarone 0.1-0.3 μM
  TdP (FIG. 18): induced spontaneous and 3-sec pause-triggered episodes of TdP
[4]; dronedarone 0.3-10 μM, ranolazine 6 and 10 μM
  Incidence of TdP and EADs: markedly increased the incidence of torsades de pointes

## O=C(NCC1CCCCN1)c1cc(OCC(F)(F)F)ccc1OCC(F)(F)F (stereo not shown) [Flecainide]
[3]; in presence of ACh, dronedarone 0.3 μM alone, flecainide positive control
  Abolition of inducible AF (hearts): abolished all episodes of AF

## CCCCc1oc2ccccc2c1C(=O)c1cc(I)c(OCCN(CC)CC)c(I)c1 [amiodarone]
Patients with AF
  Rate of recurrence of AF: 42%
[5]; after one year
  Patients who discontinue use due to intolerant side effects: 8-18%
[5]; first year of treatment
  Extracardiac complications: up to 15%
[5]; longer term treatment
  Extracardiac complications: up to 50%

## COc1ccc(CCN(C)CCCC(C#N)(c2ccc(OC)c(OC)c2)C(C)C)cc1OC (stereo not shown) [verapamil]
[6]
  Spontaneous atrial rate: 25±24 beats/min
